Measured values reported in patent US9957264B2 (Merck Sharp & Dohme Corp., priority 2013, dated 2018).

Molecular target: JAK1 (recombinant purified GST-tagged catalytic domain) (Homo sapiens (Human), UniProt P23458)
Assay: Jak Biochemical HTRF Assay (JAK1)
Conditions: [ATP] 31.8 μM
Procedure: Jak Biochemical HTRF Assay Protocol
The ability of compounds to inhibit the activity of JAK1, JAK2, JAK3, and Tyk2 was measured using a recombinant purified GST-tagged catalytic domain for each enzyme (Invitrogen JAK1 #M4290, JAK2 #M4290, JAK3 #M4290, Tyk2 #M4290) in an HTRF format biochemical assay. The reactions employed a common peptide substrate, LCB-[…]-NH2 (in-house). The basic assay protocol is as follows: First, 250 nL of diluted compounds in DMSO were dispensed into the wells of a dry 384-well Black plate (Greiner #781076) using a Labcyte Echo 555 acoustic dispenser. Subsequent reagent additions employed an Agilent Bravo. […] After equilibration, 2 μL of 10×ATP in 1× assay buffer was added to initiate the kinase reaction and the plates were shaken and then incubated at room temperature for 120 minutes. At the end of the incubation, 20 μL of 2× stop buffer (streptavidin-Dylight 650 (Thermo #84547B/100 mL), Eu-tagged pY20 antibody (Perkin Elmer #AD0067), EDTA, HEPES, and Triton) was added to quench the reaction. Plates were shaken and centrifuged and then incubated 60 minutes at room temperature and then read on a Perkin Elmer Envision (λex=337 nm, λem=665 and 615 nm, TRF delay time=20 μs). HTRF signal=10,000*665 nm reading/615 nm reading. After normalization to untreated controls, the percent inhibition of the HTRF signal at each compound concentration was calculated. The plot of percent inhibition versus the log of compound concentration was fit with a 4-parameter dose response equation to calculate IC50 values.
Final reaction conditions were:
Examples of the instant invention were evaluated in JAK1 and JAK2 in vitro binding assays as described above. The following table tabulates the JAK1 IC50 values and JAK2 IC50 values disclosed for the instant invention.

Chain of JAK1 (recombinant purified GST-tagged catalytic domain) (P23458 875-1153): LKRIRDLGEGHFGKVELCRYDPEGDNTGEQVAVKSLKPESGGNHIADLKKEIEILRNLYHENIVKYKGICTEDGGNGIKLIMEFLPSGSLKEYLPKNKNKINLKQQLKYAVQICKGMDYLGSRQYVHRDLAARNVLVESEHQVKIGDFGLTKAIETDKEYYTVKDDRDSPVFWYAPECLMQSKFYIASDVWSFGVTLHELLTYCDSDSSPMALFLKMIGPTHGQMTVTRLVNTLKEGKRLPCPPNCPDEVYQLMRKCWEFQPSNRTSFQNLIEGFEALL

Row | SMILES | IC50 [nM]
1 | N#CC[C@@]1(n2nc(Nc3ccc4c(c3)CN(C3CCNCC3)S4(=O)=O)c3c(=O)[nH]ccc32)CCOC[C@@H]1F (single isomer, unassigned) [Example 5-272, 2-((3R,4R or 3S,4S)-4-(3-((1,1-dioxido-2-(piperidin-4-yl)-2,3-dihydrobenzo [d]isothiazol-5-yl)amino)-4-oxo-4,5-dihydro-1H-pyrazolo[4,3-c]pyridin-1-yl)-3-fluorotetrahydro-2H-pyran-4-yl)acetonitrile] | 0.06
2 | COC(=O)c1ccc(Nc2nn(C3(CC#N)CN(C(=O)OC(C)(C)C)C3)c3cc[nH]c(=O)c23)cc1 [Example 4-2, tert-butyl 3-(cyanomethyl)-3-(3((4(methoxycarbonyl)phenyl)amino)-4-oxo-4,5-dihydro-1H-pyrazolo[4,3-c]pyridin-1-yl)azetidine-1-carboxylate] | 2.47
3 | CC(C)(C)OC(=O)N1CCC(CC#N)(n2nc(Nc3cccc(S(C)(=O)=O)c3)c3c(=O)[nH]ccc32)CC1 [Example 5-13, tert-butyl 4-(cyanomethyl)-4-(3-{[3-(methylsulfonyl)phenyl]amino}-4-oxo-4,5-dihydro-1H-pyrazolo[4,3-c]pyridin-1-yl)piperidine-1-carboxylate] | 0.5
4 | CC(C)(C)OC(=O)[C@@H]1CC[C@@](CC#N)(n2nc(Nc3ccc4c(c3)CN(C(C)(C)C)S4(=O)=O)c3c(=O)[nH]ccc32)CO1 [Example 5-41, (2S,5S)-tert-butyl 5-(3-((2-(tert-butyl)-1,1-dioxido-2,3-dihydrobenzo [d]isothiazol-5-yl)amino)-4-oxo-4,5-dihydro-1H-pyrazolo[4,3-c]pyridin-1-yl)-5-(cyanomethyl) tetrahydro-2H-pyran-2-carboxylate] | 0.09
5 | CC(C)(C)OC(=O)[C@H]1CC[C@](CC#N)(n2nc(Nc3ccc4c(c3)CN(C(C)(C)C)S4(=O)=O)c3c(=O)[nH]ccc32)CO1 [Example 5-42, (2R,5R)-tert-butyl 5-(3-((2-(tert-butyl)-1,1-dioxido-2,3-dihydrobenzo[d]isothiazol-5-yl)amino)-4-oxo-4,5-dihydro-1H-pyrazolo[4,3-c]pyridin-1-yl)-5-(cyanomethyl)tetrahydro-2H-pyran-2-carboxylate] | 1.6
6 | CN(C)S(=O)(=O)c1ccc(Nc2nn(C3(CC#N)CCCCC3)c3cc[nH]c(=O)c23)cc1 [Example 5-79, 4-(1-(1-(cyanomethyl)cyclohexyl)-4-oxo-4,5-dihydro-1H-pyrazolo[4,3-c]pyridin-3-ylamino)-N,N-dimethylbenzene-sulfonamide] | 0.78
7 | CN(C)S(=O)(=O)c1ccc(Nc2nn([C@@]3(CC#N)CCCC[C@H]3F)c3cc[nH]c(=O)c23)cc1 [Example 5-84] | < 0.02
8 | CC(C)(C)OC(=O)[C@@H]1CC[C@@](CC#N)(n2nc(Nc3ccc(Cn4ccnn4)cc3)c3c(=O)[nH]ccc32)CO1 [Example 5-96, (2S,5S)-tert-butyl 5-(3-((4-((1H-1,2,3-triazol-1-yl)methyl)phenyl)amino)-4-oxo-4,5-dihydro-1H-pyrazolo[4,3-c]pyridin-1-yl)-5-(cyanomethyl) tetrahydro-2H-pyran-2-carboxylate] | 0.07
9 | CC(C)(C)N1Cc2cc(Nc3nn(C4(CC#N)CCCC4)c4cc[nH]c(=O)c34)ccc2S1(=O)=O [Example 5-121, 2-(1-(3-((2-(tert-butyl)-1,1-dioxido-2,3-dihydrobenzo[d]isothiazol-5-yl)amino)-4-oxo-4,5-dihydro-1H-pyrazolo[4,3-c]pyridin-1-yl)cyclopentyl)acetonitrile] | 0.04
10 | CC1(C)OC(=O)c2ccc(Nc3nn(C4(CC#N)CCCC4)c4cc[nH]c(=O)c34)cc21 [Example 5-126, (1-{3-[(3,3-dimethyl-1-oxo-1,3-dihydro-2-benzofuran-5-yl)amino]-4-oxo-4,5-dihydro-1H-pyrazolo[4,3-c]pyridin-1-yl}cyclopentyl)acetonitrile] | 4.53
11 | CC(C)NS(=O)(=O)c1ccc(Nc2nn(C3(CC#N)CCCC3)c3cc[nH]c(=O)c23)cc1 [Example 5-130, 4-((1-(1-(cyanomethyl)cyclopentyl)-4-oxo-4,5-dihydro-1H-pyrazolo[4,3-c]pyridin-3-yl)amino)-N-isopropylbenzene-sulfonamide] | 0.5
12 | CCOC(=O)C(C)(C)N(C)S(=O)(=O)c1ccc(Nc2nn(C3(CC#N)CCCC3)c3cc[nH]c(=O)c23)cc1 [Example 5-139, ethyl 2-(4-((1-(1-(cyanomethyl)cyclopentyl)-4-oxo-4,5-dihydro-1H-pyrazolo[4,3-c]pyridin-3-yl)amino)-N-methylphenylsulfonamido)-2-methylpropanoate] | 0.76
13 | CC(C)(C)N1Cc2cc(Nc3nn([C@]4(CC#N)CCCOC4)c4cc[nH]c(=O)c34)ccc2S1(=O)=O [Example 5-178, [(3S)-3-{3-[(2-tert-butyl-1,1-dioxido-2,3-dihydro-1,2-benzisothiazol-5-yl)amino]-4-oxo-4,5-dihydro-1H-pyrazolo[4,3-c]pyridin-1-yl}tetrahydro-2H-pyran-3-yl] acetonitrile] | 0.04
14 | CC(C)(C)OC(=O)[C@@H]1CC[C@@](CC#N)(n2nc(Nc3ccc4nc(N5CCOCC5)ccc4c3)c3c(=O)[nH]ccc32)CO1 [Example 5-227, (2S,5S)-tert-butyl 5-(cyanomethyl)-5-(3-((2-morpholinoquinolin-6-yl)amino)-4-oxo-4,5-dihydro-1H-pyrazolo[4,3-c]pyridin-1-yl)tetrahydro-2H-pyran-2-carboxylate] | 0.15
15 | CN(C)S(=O)(=O)c1ccc(Nc2nn([C@@]3(CC#N)CCCC[C@H]3F)c3cc[nH]c(=O)c23)cc1 [Example 5-234, 4-({1-[(1R,2R)-1-(cyanomethyl)-2-fluorocyclohexyl]-4-oxo-4,5-dihydro-1H-pyrazolo [4,3-c]pyridin-3-yl}amino)-N,N-dimethyl-benzenesulfonamide] | 0.63
16 | CC(C)NS(=O)(=O)c1ccc(Nc2nn(C3(CC#N)CCN(C(=O)OC(C)(C)C)CC3)c3cc[nH]c(=O)c23)cc1 [Example 5-288, tert-butyl 4-(cyanomethyl)-4-(3-((4-(N-isopropylsulfamoyl)phenyl)amino)-4-oxo-4,5-dihydro-1H-pyrazolo[4,3-c]pyridin-1-yl)piperidine-1-carboxylate] | 0.15
17 | Cc1ccc(CN2CCC(CC#N)(n3nc(Nc4ccc(S(=O)(=O)N(C)C)cc4)c4c(=O)[nH]ccc43)CC2)cc1 [Example 8-2, 4-({1-[4-(cyanomethyl)-1-(4-methylbenzyl)piperidin-4-yl]-4-oxo-4,5-dihydro-1H-pyrazolo[4,3-c]pyridin-3-yl}amino)-N,N-dimethylbenzenesulfonamide] | 0.44
18 | CN(C)S(=O)(=O)c1ccc(Nc2nn(C3(CC#N)CCN(Cc4ccc(C#N)cc4)CC3)c3cc[nH]c(=O)c23)cc1 [Example 8-5] | 0.2
19 | CN(C)S(=O)(=O)c1ccc(Nc2nn(C3(CC#N)CCN(Cc4cccc5[nH]ccc45)CC3)c3cc[nH]c(=O)c23)cc1 [Example 8-16, 4-({1-[4-(cyanomethyl)-1-(1H-indol-4-ylmethyl)piperidin-4-yl]-4-oxo-4,5-dihydro-1H-pyrazolo[4,3-c]pyridin-3-yl}amino)-N,N-dimethylbenzenesulfonamide] | 1.54
20 | CCC(=O)N1CCC(CC#N)(n2nc(Nc3ccc(S(=O)(=O)N(C)C)cc3)c3c(=O)[nH]ccc32)CC1 [Example 9-1, 4-({1-[4-(cyanomethyl)-1-propanoylpiperidin-4-yl]-4-oxo-4,5-dihydro-1H-pyrazolo[4,3-c]pyridin-3-yl}amino)-N,N-dimethylbenzenesulfonamide] | 0.11
21 | CN(C)S(=O)(=O)c1ccc(Nc2nn(C3(CC#N)CCN(C(=O)Cc4ccc(C(F)(F)F)cc4)CC3)c3cc[nH]c(=O)c23)cc1 [Example 9-16, 4-({1-[4-(cyanomethyl)-1-{[4-(trifluoromethyl)phenyl]acetyl}piperidin-4-yl]-4-oxo-4,5-dihydro-1H-pyrazolo[4,3-c]pyridin-3-yl}amino)-N,N-dimethylbenzenesulfonamide] | 1.05
22 | CN(C)S(=O)(=O)c1ccc(Nc2nn(C3(CC#N)CCN(C(=O)OC4CCOCC4)CC3)c3cc[nH]c(=O)c23)cc1 [Example 11-7, tetrahydro-2H-pyran-4-yl 4-(cyanomethyl)-4-(3-((4-(N,N-dimethylsulfamoyl)phenyl)amino)-4-oxo-4,5-dihydro-1H-pyrazolo[4,3-c]pyridin-1-yl)piperidine-1-carboxylate] | 0.18
23 | CC(OC(=O)N1CCC(CC#N)(n2nc(Nc3ccc(S(=O)(=O)N(C)C)cc3)c3c(=O)[nH]ccc32)CC1)C(F)(F)F (stereo not drawn) [Example 11-8, 1,1,1-trifluoropropan-2-yl 4-(cyanomethyl)-4-(3-((4-(N,N-dimethylsulfamoyl)phenyl)amino)-4-oxo-4,5-dihydro-1H-pyrazolo[4,3-c]pyridin-1-yl)piperidine-1-carboxylate] | 0.18
24 | CS(=O)(=O)c1ccc(Nc2nn(C3(CC#N)CCN(c4ccc(I)cn4)CC3)c3cc[nH]c(=O)c23)cc1 [Example 15-7, 2-(1-(5-iodopyridin-2-yl)-4-(3-((4-(methylsulfonyl)phenyl)amino)-4-oxo-4,5-dihydro-1H-pyrazolo[4,3-c]pyridin-1-yl)piperidin-4-yl)acetonitrile] | 0.17
